In US5843449A, “Proteins and novel peptides derived from autoantigen for use in immunotherapy of autoimmune diseases” (Akzo Nobel N.V., priority 1996, dated 1998):
Values joined by “and” are separate entries in the source; they are usually repeats but may differ in a detail not shown here. Equal values may be shown once.

Key:
Type in all cases: in vivo
Balb/c mice [1] = assay: Arthritogenicity of HC gp-39 in Balb/c mice; details: for arthritis signs: mild (number of animals) / arthritis signs: none (number of animals) / arthritis signs: severe (number of animals): n = 4; for arthritis signs: mild (number of animals): mild: score per animal does not exceed 2; for arthritis signs: none (number of animals): none: score = 0; for arthritis signs: severe (number of animals): severe: score per animal ≥3
Procedure: (§1) 10 or 50 μg of purified HC gp-39 in a 100 μl volume PPBS (0.5M NaCl, 0.01M sodium phosphate buffer, pH 7.5) mixed 1:1 in incomplete Freunds adjuvant (IFA) was injected subcutaneously in the chest region in 2×4 female Balb/c mice (Harlan CPB, Zeist, The Netherlands) whereas 4 controls were injected with PBS (1:1 in IFA). Mice were examined daily for clinical signs of arthritis. Severity of arthritis was assessed by scoring each paw from 0-3 (according to the article by Glant et al). In short, score 0=no changes, score 1=erythema and swelling, score 2=swelling and appearance of deformities, score 3=immobility due to loss of flexion and extension.

Balb/c mice [2] = assay: Tolerance to arthritis induction or progression after intranasal HC gp-39; details: for arthritis signs: mild (number of animals): mild: score per animal does not exceed 2; for arthritis signs: severe (number of animals): severe: score per animal ≥4; for arthritis onset (day): first signs appear - highest number of animals affected: monitored to day 31
Procedure: as §1
(§2) Twenty eight μg of protein was administered intranasally (2×10 μl) to 10 female Balb/c mice (anesthetized lightly with Enflurance) using a PT45 micro conduit and a Hamilton syringe. Antigen was administered on day -15, -10 and -5 prior to arthritis induction. Controls (n=10) were submitted to the same procedure but received the vehicle (PBS) only (Table 5).
Tolerance to arthritis induction in these same mice was then further monitored until day 31 following sensitization and mice were examined daily for clinical signs. Severity of arthritis was assessed as mentioned above.

Balb/c mice [3] = assay: Immunological tolerance by intranasal HC gp-39, DTH assay (footpad swelling)
Procedure: as §2
Immunological tolerance was evaluated by measuring delayed type hypersensitivity (DTH) response following sensitization as described above on day 0, using 10 μg of protein. Sensitization on day 0 was followed by an injection of 10 μg HC gp-39 in […] in the left hind footpad on day 8 (challenge). DTH reactions were measured as the increase in footpad ([swelling left (mm×10^-3)-swelling right (mm×10^-3)]/swelling right (mm×10^-3))×100%. The footpad swelling was measured using an in house designed μmeter at 0, 24 and 48 hr after challenge.

[4] = controls (n = 10), non-tolerized, 10 μg HC gp-39 s.c.
[5] = tolerized (n = 10): 28 μg HC gp-39 intranasal x3, then 10 μg s.c.
[6] = controls (n = 10): PBS intranasal, 10 μg HC gp-39 s.c. day 0, 10 μg footpad challenge day 8
[7] = tolerized (n = 9): 28 μg HC gp-39 intranasal day -15, -10, -5, 10 μg s.c. day 0, 10 μg footpad day 8

For “HC gp-39: Human Cartilage glycoprotein 39, purified from culture supernatant of MG63 human osteosarcoma cells; target autoantigen in RA”, the “arthritis signs: mild (number of animals)” value (“arthritis signs: mild” below) (Balb/c mice [1]; 10 μg s.c. in IFA) was “One and 1”, the “arthritis signs: none (number of animals)” value (“arthritis signs: none” below) (Balb/c mice [1]; 10 μg s.c. in IFA) was 0 and the “arthritis signs: severe (number of animals)” value (“arthritis signs: severe” for short) (Balb/c mice [1]; 10 μg s.c. in IFA) was “Three out of 4 and 3”. For the same substance, the “arthritis signs: mild” value (Balb/c mice [1]; 50 μg s.c. in IFA) was 0, the “arthritis signs: none” value (Balb/c mice [1]; 50 μg s.c. in IFA) was 0 and the “arthritis signs: severe” value (Balb/c mice [1]; 50 μg s.c. in IFA) was “all mice and 4”. For the same substance, the “arthritis onset (day) FP (fore paw), per animal” value (Balb/c mice [1]; 50 μg s.c. in IFA, n = 4 Balb/c mice) was 15 to 20 days, the “frequency of symmetrical distribution of afflicted joints” value (Balb/c mice [1]; 50 μg s.c. in IFA, followed for 62 days) was > 50% and the “arthritis signs: mild” value (Balb/c mice [2]; [4]) was “three and 3”. The “arthritis signs: none” value (Balb/c mice [2]; controls (n = 10), non-tolerized, 10 μg HC gp-39 s.c., no signs: score 0) was 0, the “arthritis signs: severe” value (Balb/c mice [2]; [4]) was “Seven and 7” and the “arthritis onset (day): first signs appear - highest number of animals affected” value (Balb/c mice [2]; controls (n = 10), non-tolerized, sensitized with 10 μg HC gp-39 s.c.) was 13 to 16 days. The “arthritis onset (day): first signs appear - highest number of animals affected” value (Balb/c mice [2]; tolerized (n = 10): 28 μg HC gp-39 intranasal day -15, -10, -5, then 10 μg s.c.) was 23 to 24 days, the “arthritis signs: mild” value (Balb/c mice [2]; [5]) was “two and 2” and the “arthritis signs: severe” value (Balb/c mice [2]; [5]) was “Three and 3”. The “delay of arthritis onset in tolerized animals, hind and fore paws respectively” value (Balb/c mice [2]; tolerized vs non-tolerized, FIG. 1) was 7 to 9 days, the “DTH response (in words)” value (Balb/c mice [3]; control (non-tolerized) mice injected with HC gp-39 at day 0) was “strong, antigen-specific DTH response” and the “DTH, mean % swelling 0 hr” value (Balb/c mice [3]; [6]) was -1.3%. The “DTH, mean % swelling 24 hr” value (Balb/c mice [3]; [6]) was 31.4%, the “DTH, mean % swelling 48 hr” value (Balb/c mice [3]; [6]) was 38.6% and the “arthritis ankle (animals affected, adjacent to site of challenge)” value (Balb/c mice [3]; [6]) was 4 out of 10 and 4/10 and four out of ten. For the same substance, the “DTH, mean % swelling 0 hr” value (Balb/c mice [3]; [7]) was -0.05%, the “DTH, mean % swelling 24 hr” value (Balb/c mice [3]; [7]) was 3.7% and the “DTH, mean % swelling 48 hr” value (Balb/c mice [3]; [7]) was 1.5%. The “arthritis ankle (animals affected, adjacent to site of challenge)” value (Balb/c mice [3]; [7]) was “did not develop an arthritis and 0/9 and fully protected” and the “DTH responses upon challenge (in words)” value (Balb/c mice [3]; tolerized by intranasal administration of HC gp-39) was “completely abrogated”.
